Reference: PubChem BioAssay AID328 (DTP/NCI, 2004)
Where “and” joins values, the source holds several entries; their conditions need not be identical. Equal entries are not always repeated. Inconclusive results and toxic doses are left out. Positions of bridges follow the written chain, without caps; N, C: chain ends. Non-standard residues stand in square brackets, D forms with d. Residues, ends and D or L forms follow the SMILES beside them. Pip(4-oxo) = O=C1CCN[CH](C(=O)O)C1; NMeV = CN[CH](C(=O)O)C(C)C; Sar = CNCC(=O)O

System: BDF1 mice, P388 leukemia ip, median survival T/C
Assay: NCI In Vivo Anticancer Drug Screen. Data for tumor model P388 Leukemia (intraperitoneal) in B6D2F1 (BDF1) mice
Conditions: endpoint: median survival time, higher = longer survival
Method in brief: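 In tumour-bearing mice, survival after compound treatment is set against the vehicle group and given as a quotient.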

[1] = dose: 25.0 mg/kg/injection, schedule: Q04DX003 (ip), vehicle: saline
[2] = dose: 100.0 mg/kg/injection, schedule: Q04DX003 (ip), vehicle: Klucel (hydroxypropylcellulose) (HPC)
[3] = dose: 200.0 mg/kg/injection, schedule: Q04DX003 (ip), vehicle: Klucel (hydroxypropylcellulose) (HPC)
[4] = dose: 400.0 mg/kg/injection, schedule: Q04DX003 (ip), vehicle: Klucel (hydroxypropylcellulose) (HPC)
[5] = dose: 12.5 mg/kg/injection, schedule: Q01DX009 (ip), vehicle: saline with Tween-80
[6] = dose: 25.0 mg/kg/injection, schedule: Q01DX009 (ip), vehicle: saline with Tween-80
[7] = dose: 50.0 mg/kg/injection, schedule: Q01DX009 (ip), vehicle: saline with Tween-80
[8] = dose: 200.0 mg/kg/injection, schedule: Q01DX009 (ip), vehicle: saline with Tween-80
[9] = dose: 100.0 mg/kg/injection, schedule: Q01DX009 (ip), vehicle: saline with Tween-80
[10] = dose: 50.0 mg/kg/injection, schedule: Q01DX009 (ip), vehicle: water
[11] = dose: 100.0 mg/kg/injection, schedule: Q01DX009 (ip), vehicle: water
[12] = dose: 100.0 mg/kg/injection, schedule: Q04DX003 (ip), vehicle: water
[13] = dose: 200.0 mg/kg/injection, schedule: Q01DX009 (ip), vehicle: water
[14] = dose: 400.0 mg/kg/injection, schedule: Q01DX009 (ip), vehicle: water
[15] = dose: 100.0 mg/kg/injection, schedule: Q01DX009 (ip), vehicle: saline
[16] = dose: 200.0 mg/kg/injection, schedule: Q01DX009 (ip), vehicle: saline

C=CC(COC(C)=O)N1CC1 (stereo unspecified)
T/C (dose: 4.0 mg/kg/injection, schedule: Q01DX009 (ip), vehicle: saline): 104 % of control
T/C (dose: 6.0 mg/kg/injection, schedule: Q01DX009 (ip), vehicle: saline): 115 % of control
T/C (dose: 8.0 mg/kg/injection, schedule: Q01DX009 (ip), vehicle: saline): 112 % of control
T/C (dose: 12.0 mg/kg/injection, schedule: Q04DX003 (ip), vehicle: saline): 110 % of control
T/C (dose: 17.0 mg/kg/injection, schedule: Q01DX009 (ip), vehicle: saline): 116 % of control
T/C (dose: 25.0 mg/kg/injection, schedule: Q01DX009 (ip), vehicle: saline): 150 % of control and 165 % of control
T/C [1]: 120 % of control
T/C (dose: 37.0 mg/kg/injection, schedule: Q01DX009 (ip), vehicle: saline): 180 % of control

CCOC(=O)C(C)Cl (stereo unspecified)
T/C (dose: 50.0 mg/kg/injection, schedule: Q01DX009 (ip), vehicle: Klucel (hydroxypropylcellulose) (HPC)): 104 % of control
T/C (dose: 100.0 mg/kg/injection, schedule: Q01DX009 (ip), vehicle: Klucel (hydroxypropylcellulose) (HPC)): 100 % of control
T/C [2]: 110 % of control
T/C (dose: 200.0 mg/kg/injection, schedule: Q01DX009 (ip), vehicle: Klucel (hydroxypropylcellulose) (HPC)): 91 % of control
T/C [3]: 105 % of control
T/C [4]: 105 % of control

CCc1oc(=O)c(Cc2c(OC(C)=O)cc(OC(C)=O)c3c2OC(c2ccccc2)CC3=O)c(OC(C)=O)c1C (stereo unspecified)
T/C (dose: 1.0 mg/kg/injection, schedule: Q01DX009 (ip), vehicle: Klucel (hydroxypropylcellulose) (HPC)): 99 % of control
T/C (dose: 2.0 mg/kg/injection, schedule: Q01DX009 (ip), vehicle: Klucel (hydroxypropylcellulose) (HPC)): 92 % of control
T/C (dose: 4.0 mg/kg/injection, schedule: Q01DX009 (ip), vehicle: Klucel (hydroxypropylcellulose) (HPC)): 93 % of control
T/C (dose: 8.0 mg/kg/injection, schedule: Q01DX009 (ip), vehicle: Klucel (hydroxypropylcellulose) (HPC)): 92 % of control

CN1CC2CC(C1)c1cccc(=O)n1C2 (stereo unspecified)
T/C (dose: 5.0 mg/kg/injection, schedule: Q01DX010 (ip), vehicle: saline): 86 % of control
T/C (dose: 10.0 mg/kg/injection, schedule: Q01DX010 (ip), vehicle: saline): 109 % of control
T/C (dose: 20.0 mg/kg/injection, schedule: Q01DX010 (ip), vehicle: saline): 104 % of control
T/C (dose: 40.0 mg/kg/injection, schedule: Q01DX010 (ip), vehicle: saline): 95 % of control

CCCCCCCCOC(=O)c1ccc(OP(=O)(N(C)C)N(C)C)cc1
T/C [5]: 99 % of control
T/C [6]: 101 % of control
T/C [7]: 106 % of control and 124 % of control
T/C [8]: 94 % of control

CCCCCCC(=O)/C=C/c1cc(OC)ccc1OC
T/C [5]: 100 % of control
T/C [6]: 95 % of control
T/C [7]: 104 % of control
T/C [9]: 104 % of control

COc1cc2cccccc-2cc1=O
T/C [2]: 110 % of control
T/C [3]: 115 % of control
T/C [4]: 115 % of control

CCOC(=O)C1=C(C)NC(=O)NC1c1ccc(N=Cc2cc(Br)ccc2O)cc1 (stereo unspecified)
T/C (dose: 75.0 mg/kg/injection, schedule: Q01DX001 (ip), vehicle: saline with Tween-80): 95 % of control
T/C (dose: 150.0 mg/kg/injection, schedule: Q01DX001 (ip), vehicle: saline with Tween-80): 90 % of control
T/C (dose: 300.0 mg/kg/injection, schedule: Q01DX001 (ip), vehicle: saline with Tween-80): 90 % of control

N/C(CCNO)=N\O
T/C (dose: 75.0 mg/kg/injection, schedule: Q01DX009 (ip), vehicle: saline): 96 % of control
T/C (dose: 150.0 mg/kg/injection, schedule: Q01DX009 (ip), vehicle: saline): 86 % of control
T/C (dose: 300.0 mg/kg/injection, schedule: Q01DX009 (ip), vehicle: saline): 96 % of control

CC(Cc1ccc2ccccc2c1)C(=O)c1ccc2ccccc2c1 (stereo unspecified)
T/C (dose: 100.0 mg/kg/injection, schedule: Q01DX001 (ip), vehicle: saline with Tween-80): 100 % of control
T/C (dose: 200.0 mg/kg/injection, schedule: Q01DX001 (ip), vehicle: saline with Tween-80): 100 % of control
T/C (dose: 400.0 mg/kg/injection, schedule: Q01DX001 (ip), vehicle: saline with Tween-80): 100 % of control

CC1=C(c2ccccc2)C(c2ccccc2)C(/C=C/c2ccccc2)=NC=C1c1ccccc1 (stereo unspecified)
T/C [7]: 108 % of control
T/C [9]: 94 % of control
T/C [8]: 97 % of control

CCCCN(CCCC)C(=O)C1C=C2c3cccc4[nH]cc(c34)CC2N(C)C1 (stereo unspecified)
T/C [10]: 105 % of control
T/C [11]: 94 % of control
T/C [12]: 105 % of control
T/C [13]: 114 % of control
T/C (dose: 200.0 mg/kg/injection, schedule: Q04DX003 (ip), vehicle: water): 94 % of control
T/C [14]: 109 % of control
T/C (dose: 400.0 mg/kg/injection, schedule: Q04DX003 (ip), vehicle: water): 97 % of control

OC1CC2CC1C(Cl)C2Cl (stereo unspecified)
T/C [7]: 113 % of control
T/C [9]: 96 % of control
T/C [8]: 98 % of control

O=C(O)C(CSC(c1ccccc1)(c1ccccc1)c1ccccc1)N=Cc1ccccc1O (stereo unspecified)
T/C [7]: 159 % of control
T/C (dose: 66.0 mg/kg/injection, schedule: Q04DX003 (ip), vehicle: saline with Tween-80): 104 % of control
T/C [9]: 186 % of control
T/C (dose: 100.0 mg/kg/injection, schedule: Q04DX003 (ip), vehicle: saline with Tween-80): 190 % of control
T/C (dose: 150.0 mg/kg/injection, schedule: Q04DX003 (ip), vehicle: saline with Tween-80): 177 % of control
T/C [8]: 272 % of control

O=Cc1ccc(N2CCCCC2)cc1
T/C [2]: 91 % of control
T/C [3]: 95 % of control

OC(CNc1ccc(Cl)c(Cl)c1)COc1ccc(Cl)cc1Cl (stereo unspecified)
T/C [7]: 101 % of control
T/C [9]: 101 % of control
T/C [8]: 104 % of control

CCN(CCNc1ccc(C)c2sc3cc(Cl)ccc3c(=O)c12)CC(C)O (stereo unspecified)
T/C [15]: 109 % of control
T/C [16]: 104 % of control

O=C1NCCN1c1ccccn1
T/C (dose: 12.5 mg/kg/injection, schedule: Q04DX003 (ip), vehicle: saline): 100 % of control
T/C [1]: 90 % of control
T/C (dose: 50.0 mg/kg/injection, schedule: Q04DX003 (ip), vehicle: saline): 95 % of control

CC(C)C1NC(=O)C(N)C(C)OC(=O)C(C(C)C)N(C)C(=O)CN(C)C(=O)C2CC(=O)CCN2C1=O (stereo unspecified) (tested in a mixture with another compound) (H-TV[Pip(4-oxo)][Sar][NMeV]; ester 1-C; configuration not given here)
T/C (dose: 50.0 micrograms/kg/injection, schedule: Q01DX009 (ip), vehicle: saline + alcohol): 168 % of control
T/C (dose: 75.0 micrograms/kg/injection, schedule: Q01DX009 (ip), vehicle: saline + alcohol): 203 % of control
T/C (dose: 100.0 micrograms/kg/injection, schedule: Q01DX009 (ip), vehicle: saline + alcohol): 192 % of control
T/C (dose: 150.0 micrograms/kg/injection, schedule: Q01DX009 (ip), vehicle: saline + alcohol): 230 % of control

N#CC1=C(N)CCCC1
T/C (dose: 50.0 mg/kg/injection, schedule: Q01DX009 (ip), vehicle: saline): 97 % of control
T/C [15]: 99 % of control
T/C [16]: 102 % of control

NCCCCC(N)C(=O)NC(CCCN=C(N)N)C(N)=O (stereo not drawn) (H-Lys-Arg-NH2; configuration not given here)
T/C (dose: 6.25 mg/kg/injection, schedule: Q04DX003 (ip), vehicle: water): 115 % of control
T/C (dose: 12.5 mg/kg/injection, schedule: Q04DX003 (ip), vehicle: water): 112 % of control
T/C (dose: 25.0 mg/kg/injection, schedule: Q01DX009 (ip), vehicle: water): 101 % of control
T/C (dose: 25.0 mg/kg/injection, schedule: Q04DX003 (ip), vehicle: water): 104 % of control
T/C [10]: 108 % of control
T/C (dose: 50.0 mg/kg/injection, schedule: Q04DX003 (ip), vehicle: water): 97 % of control
T/C [11]: 111 % of control
T/C [12]: 104 % of control
T/C [13]: 106 % of control
T/C [14]: 106 % of control

CC(=O)CC(=O)NC1CCCCC1
T/C [9]: 100 % of control
T/C [8]: 100 % of control
T/C (dose: 400.0 mg/kg/injection, schedule: Q01DX009 (ip), vehicle: saline with Tween-80): 100 % of control
